Measured values published in patent US8426612B2, “Synthesis of 3-{[(2R)-1-methylpyrrolidin-2-yl]methyl}-5[2-(phenylsulfonyl)ethyl]-1H-indole” (F.I.S. Fabbrica Italiana Sintetici S.p.A., priority 2009, dated 2013).

Columns and labels:
[1] = Stability tests of Eletriptan hydrobromide Beta form polymorph in various solvents, temperatures and times; assay type: physicochemical; settings: all experiments of the 1st table: various solvents, RT to 80° C. or heating, 5-48 hr; DSC trace
Description: Eletriptan hydrobromide Beta form obtained according to the inventive process has been subject to a series of experiments to assess its stability against the conversion into Form Alpha of higher melting point or in amorphous.
These experiments have been performed in various solvents and at various temperature and time conditions. […] The DSC trace is the same for all the product prepared according to Example 18 and is the same of that of Beta polymorph.

[2] = Prior-art experiments to convert Beta form to Alpha form or amorphous, repeated under exactly the same conditions; assay type: physicochemical; settings: conditions of U.S. Pat. No. 6,110,940 (example 2) and WO2008/137134 (examples 16-19; 2, 7, 8, 12, 13)
Description: In addition, the same experiments described in U.S. Pat. No. 6,110,940 (example 2) and WO2008/137134 (examples 16, 17, 18, 19) to convert Eletriptan Beta form to Alpha form and those described in WO2008/137134 (examples 2, 7, 8, 12 and 13) to convert Eletriptan Beta form to amorphous were carried out on Eletriptan Hydrobromide form Beta of invention, applying exactly the same conditions. […] There results confirms the stability of Eletriptan hydrobromide Beta form of invention and his different behaviour in comparison with the same form described in the State of the Art.

[3] = DSC study with heating/cooling cycles to convert Beta form to other forms; assay type: physicochemical
[4] = Hygroscopicity test as described in the European Pharmacopoeia 5.0; assay type: physicochemical; settings: 25° C., 80% rel. humidity, 24 h
Description: Eletriptan hydrobromide Beta stable form obtained according to the inventive process has been subject to the hygroscopicity test as described in the European Pharmacopoeia 5.0 (25° C., 80% rel. humidity, 24 h).

[5] = reported in U.S. Pat. No. 6,110,940; converts into Form Alpha; cited from earlier work

| Compound | stability against conversion into Form Alpha, amorphous or other forms [1] | polymorphic form obtained [2] | polymorphic form obtained [3] | hygroscopicity (classification) [4] | hygroscopicity (value) [4] [%] | stability of polymorph [5] |
| --- | --- | --- | --- | --- | --- | --- |
| Br.CN1CCC[C@@H]1Cc1c[nH]c2ccc(CCS(=O)(=O)c3ccccc3)cc12 [Eletriptan hydrobromide Form Beta, 3-{[(2R)-1-methylpyrrolidin-2-yl]methyl}-5-[2-(phenylsulfonyl)ethyl]-1H-indole hydrobromide] | did not convert into Form A, amorphous or other crystalline forms or in any hydrated form | provided only Eletriptan hydrobromide form Beta | provided always Form Beta | not hygroscopic | 0.1 | – |
| Br.CN1CCC[C@@H]1Cc1c[nH]c2ccc(CCS(=O)(=O)c3ccccc3)cc12 [Form Beta of Eletriptan hydrobromide] | – | – | – | – | – | not stable |
